From patent publication US20020115723A1, “Cysteine derivatives” (AJINOMOTO CO., INC., priority 1998, published 2002)

Legend:
[1] = test system: NF-κB; assay: Test on the function of inhibiting the activation of NF-κB induced by ultraviolet rays (gel shift assay); format: cell-based, human; conditions: for Inhibition ratio (%) of NF-κB activation: human epidermal cells, UVB 50 mJ/cm^2
Description: Test on the Function of Inhibiting the Activation of NF-κB Induced by Ultraviolet Rays.
After 18 hours had elapsed, the culture medium was substituted by a phenol red-free medium. The cells were exposed to ultraviolet rays (UVB: 50 mJ/cm^2) from an ultraviolet irradiator “Dermaray M-DMR-80” (ex Toshiba Medical Supply Co., Ltd.). After 4 to 5 hours had elapsed, the cells were collected, and the nucleoprotein was extracted therefrom in a manner known per se in the art. From the resulting nucleoprotein, the activated NF-κB was detected in accordance with the gel shift assay. The amount of the NF-κB was determined by measuring the radioactive value of the NF-κB band with the use of a bioimaging analyzer “BAS 2000” (ex Fuji Film Co., Ltd.).
The inhibition ratio of the activation of the NF-κB of the test compounds was calculated from the below-described formula (1).
Inhibition ratio of NF-κB activation (%)={1−(A1-A3)/(A2-A3)}×100 (1)
A1: radioactive value of the NF-κB upon addition of a test compound
A2: radioactive value of NF-κB when a test compound is not added
A3: radioactive value of NF-κB when a test compound is not added and is not exposed to ultraviolet rays.

[2] = test system: AP-1; assay: Test on the function of inhibiting the AP-1 activation induced by ultraviolet rays (gel shift assay); format: cell-based, human; conditions: single compound
Description: Test on the Function of Inhibiting the AP-1 Activation Induced by Ultraviolet Rays.
In a similar manner to Test Example 1, a nucleoprotein was obtained. Then, the activated AP-1 was detected by the gel shift assay. The radioactive value of the AP-1 band was measured as in Test Example 1, whereby the amount of the AP-1 was determined. The AP-1 activation inhibiting ratio of the test compounds was calculated by the below-described equation (2). The results of the test compounds according to the present invention are shown below in Table 4a, while those of the comparative compounds are shown below in Table 4b.
AP-1 activation inhibiting ratio (%)={1−(B1-B3)/(B2-B3)}×100 (2)
B1: radioactive value of the AP-1 band upon addition of a test compound.
B2: radioactive value of the AP-1 band when a test compound is not added.
B3: radioactive value of the AP-1 band when a test compound is not added and is not exposed to ultraviolet rays.

[3] = test system: Hairless mice (SKH-1); assay: Test on inhibiting function of wrinkles formation induced by ultraviolet rays (No. 2), Components (A) and (B) in combination; format: in vivo, mouse; parameters: scale not given here
Description: Hairless mice (SKH-1, female, 5-6 weeks old) were exposed to ultraviolet rays (UVB) three times/week (Monday, Wednesday and Friday) for 5 weeks, each at 50 to 100 mJ/cm^2 by using the above-described “Dermaray M-DMR-80” (ex Toshiba Medical Supply Co., Ltd.). The test compound (N,N′-diacetyl-L-cystine dimethyl ester) was dissolved in a mixed solvent of propylene glycol, ethanol and water, and was applied to the back portion of each of the mice in an amount of 100 μl, 30 to 60 minutes before exposure to ultraviolet rays, just after the completion of the exposure, and on the days free from exposure to ultraviolet rays (Sunday, Tuesday, Thursday and Saturday). From two weeks after the exposure had started, the wrinkles formed on the back portion of each mouse were evaluated once a week based on the below-described standards, and they were indicated as scores. In addition, the function of the inventive compound for inhibiting wrinkle formation induced by ultraviolet rays was judged based on the below-described judging standards.
Test on Inhibiting Function of Wrinkles Formation Induced by Ultraviolet Rays (No. 2)
Function of suppressing ultraviolet ray-induced wrinkles formation by the synergistic effects when Components (A) and (B) were used in combination, was judged in a similar manner to Test Example 2. Fifteen to twenty mice were divided into 4 groups, that is, a 1st group to which a mixed solvent of propylene glycol, ethanol and water was to be applied, a 2nd group to which a solution of only Component (A) dissolved in the above-described solvent was to be applied, a 3rd group to which a solution of only Component (B) dissolved in the above-described solvent was to be applied, and a 4th group to which a solution of both Components (A) and (B) dissolved in the above-described solvent was to be applied. An average score of each group was determined.

| Structure (SMILES) | Inhibition ratio (%) of NF-κB activation ([1]; addition concentration 0.01 mM) | Inhibition ratio (%) of NF-κB activation ([1]; addition concentration 0.1 mM) | other results |
| --- | --- | --- | --- |
| COC(=O)[C@H](CCSSCC[C@H](NC(C)=O)C(=O)OC)NC(C)=O (racemic) [N,N′-diacetyl -DL-homocystine dimethyl ester] | 10% | 46% |  |
| Cc1c(C)c2c(c(C)c1O)CCC(C)(CCCC(C)CCCC(C)CCCC(C)C)O2 (racemic) [dl-α-tocopherol] |  |  | AP-1 activation Inhibiting ratio (%) ([2]; 10 μM): 5%; AP-1 activation Inhibiting ratio (%) ([2]; 100 μM): −1%; Wrinkle score (group average) ([3]; 5% alone, 2nd week): 2.0; Wrinkle score (group average) ([3]; 5% alone, 3rd week): 3.0; Wrinkle score (group average) ([3]; 5% alone, 4th week): 2.5; Wrinkle score (group average) ([3]; 5% alone, 5th week): 3.5 |
| CCCCC(CC)COC(=O)C=Cc1ccc(OC)cc1 (stereo not shown) [2-ethylhexyl p-methoxycinnamate] |  |  | AP-1 activation Inhibiting ratio (%) ([2]; 10 μM): −20%; AP-1 activation Inhibiting ratio (%) ([2]; 100 μM): 11%; Wrinkle score (group average) ([3]; 3% alone, 2nd week): 0.0; Wrinkle score (group average) ([3]; 3% alone, 3rd week): 0.5; Wrinkle score (group average) ([3]; 3% alone, 4th week): 1.5; Wrinkle score (group average) ([3]; 3% alone, 5th week): 0.5 |
| COc1ccc(C(=O)CC(=O)c2ccc(C(C)(C)C)cc2)cc1 [4-tert-butyl-4′-methoxybenzoylmethane] |  |  | AP-1 activation Inhibiting ratio (%) ([2]; 1 μM): −14%; AP-1 activation Inhibiting ratio (%) ([2]; 10 μM): 17% |
| O=C1O[C@H]([C@@H](O)CO)C(O)=C1O [L (+) ascorbic acid] |  |  | AP-1 activation Inhibiting ratio (%) ([2]; 0.1 mM): 1%; AP-1 activation Inhibiting ratio (%) ([2]; 1 mM): 0%; Wrinkle score (group average) ([3]; 5% alone, 2nd week): 1.0; Wrinkle score (group average) ([3]; 5% alone, 3rd week): 2.0; Wrinkle score (group average) ([3]; 5% alone, 4th week): 4.0; Wrinkle score (group average) ([3]; 5% alone, 5th week): 4.0 |
| CCOC(=O)[C@@H](N)CSSC[C@H](N)C(=O)OCC [L-cystine diethyl ester] |  | 50% | Inhibition ratio (%) of NF-κB activation ([1]; addition concentration 0.5 mM): >100% |
| CC(=O)N[C@@H](CSSC[C@H](NC(C)=O)C(=O)O)C(=O)O [N,N′ -diacetyl-L-cystine, N,N′-diacetyl-L-cystine, reference compound] |  |  | Inhibition ratio (%) of NF-κB activation ([1]; addition concentration 10 mM): 48%; Inhibition ratio (%) of NF-κB activation ([1]; addition concentration 30 mM): 67% |
| CCCC(=O)N[C@@H](CSSC[C@H](NC(=O)CCC)C(N)=O)C(N)=O [N,N′-di(n-butyryl)-L-cystine diamide] | 45% | 11% |  |
| CCCC(=O)N[C@@H](CSSC[C@H](NC(=O)CCC)C(=O)OC)C(=O)OC [N,N′-di(n-butyryl)-L-cystine dimethyl ester] | 52% | 79% |  |
| CCCCCCCCCC(=O)N[C@@H](CSSC[C@H](NC(=O)CCCCCCCCC)C(=O)OC)C(=O)OC [N,N′-di(n-decanoyl)-L-cystine dimethyl ester] | 56% | 68% |  |
| CCCCCCC(=O)N[C@@H](CSSC[C@H](NC(=O)CCCCCC)C(=O)OC)C(=O)OC [N,N′-di(n-heptanoyl)-L-cystine dimethyl ester] | 25% | 103% |  |
| CCCCCC(=O)N[C@@H](CSSC[C@H](NC(=O)CCCCC)C(=O)OC)C(=O)OC [N,N′-di(n-hexanoyl)-L-cystine dimethyl ester] | 43% | 77% |  |
| CCCCCCCC(=O)N[C@@H](CSSC[C@H](NC(=O)CCCCCCC)C(=O)OC)C(=O)OC [N,N′-di(n-octanoyl)-L-cystine dimethyl ester] | 33% | 91% |  |
| CCC(=O)N[C@@H](CSSC[C@H](NC(=O)CC)C(=O)OC)C(=O)OC [N,N′-di(n-propionyl)-L-cystine dimethyl ester] | 17% | 54% |  |
| CCCCC(=O)N[C@@H](CSSC[C@H](NC(=O)CCCC)C(N)=O)C(N)=O [N,N′-di(n-valeryl)-L-cystine diamide] | 8% | 53% |  |
| CCCCC(=O)N[C@@H](CSSC[C@H](NC(=O)CCCC)C(=O)OC)C(=O)OC [N,N′-di(n-valeryl)-L-cystine dimethyl ester] | 18% | 64% |  |
| CCOC(=O)[C@H](CSSC[C@H](NC(C)=O)C(=O)OCC)NC(C)=O [N,N′-diacetyl-L-cystine diethyl ester] | 37% | 107% |  |
| CC(=O)N[C@@H](CSSC[C@H](NC(C)=O)C(=O)OC(C)C)C(=O)OC(C)C [N,N′-diacetyl-L-cystine diisopropyl ester] | 19% | 48% |  |
| CCCCCCCCCCCC(=O)N[C@@H](CSSC[C@H](NC(=O)CCCCCCCCCCC)C(=O)OC)C(=O)OC [N,N′-dilauroyl-L-cystine dimethyl ester] | 52% | 59% |  |
| COC(=O)[C@H](CSC(C)=O)NC(C)=O [N,S-diacetyl-L-cystine methyl ester] | 20% | 31% |  |
| CCOC(=O)[C@H](CSSC[C@H](N)C(=O)O)NC(C)=O [N-acetyl-L-cystine ethyl ester] | 31% | 74% |  |
| CC(=O)N[C@@H](CSSC[C@H](N)C(=O)O)C(=O)OC(C)C [N-acetyl-L-cystine isopropylester] | 21% | 82% |  |
| COC(=O)[C@H](CSSC[C@H](N)C(=O)O)NC(C)=O [N-acetyl-L-cystine methyl ester] | 28% | 95% |  |
| CCCCCCCCCCCC(=O)N[C@@H](CSSC[C@H](N)C(=O)O)C(=O)OC [N-lauroyl-L-cystine methyl ester] | 36% | 43% |  |
| CCCCCCCCCCCC(=O)N[C@@H](CSSC[C@H](N)C(=O)O)C(=O)O [N-lauroyl-L-cystine] |  | 14% | Inhibition ratio (%) of NF-κB activation ([1]; addition concentration 0.5 mM): 86% |
| O=C(O)c1ccccc1O [Salicylic acid] |  |  | Wrinkle score (group average) ([3]; 5% alone, 2nd week): 2.0; Wrinkle score (group average) ([3]; 5% alone, 3rd week): 1.5; Wrinkle score (group average) ([3]; 5% alone, 4th week): 1.5; Wrinkle score (group average) ([3]; 5% alone, 5th week): 2.5 |
| CC1(C)[C@@H](O)CC[C@]2(C)[C@H]3C(=O)C=C4[C@@H]5C[C@@](C)(C(=O)O)CC[C@]5(C)CC[C@@]4(C)[C@]3(C)CC[C@@H]12 [glycyrrhetinic acid] |  |  | AP-1 activation Inhibiting ratio (%) ([2]; 10 μM): 2%; AP-1 activation Inhibiting ratio (%) ([2]; 100 μM): −104% |
| CC1(C)[C@@H](O[C@H]2O[C@H](C(=O)O)[C@@H](O)[C@H](O)[C@H]2O[C@@H]2O[C@H](C(=O)O)[C@@H](O)[C@H](O)[C@H]2O)CC[C@]2(C)[C@H]3C(=O)C=C4[C@@H]5C[C@@](C)(C(=O)O)CC[C@]5(C)CC[C@@]4(C)[C@]3(C)CC[C@@H]12 [glycyrrhizic acid] |  |  | AP-1 activation Inhibiting ratio (%) ([2]; 0.1 mM): 3%; AP-1 activation Inhibiting ratio (%) ([2]; 1 mM): −70% |
| S=C(S)N1CCCC1 [pyrrolidine dithiocarbamate, reference compound] | 9% |  | Inhibition ratio (%) of NF-κB activation ([1]; addition concentration 0.005 mM): −2%; NF-κB activation inhibiting function (in words) ([1]; summary of Tables 2a and 2b): did not exhibit the NF-κKB activation inhibiting function |
